# Where “and” joins values, the source holds several entries; their conditions need not be identical. Identical values can stand only once.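 Dose response: 5 concentrations. Exposure: 48 h. Format: 96-well plates. Endpoint: linear interpolation; highest concentration if not reached. At the GI50, growth is halved. TGI is the concentration that stops growth completely.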
# Legend:
# Assay in all cases: inhibition of tumour cell growth, NCI panel, 48 h
# [1] = system: IGROV1 ovarian
# [2] = system: LOX IMVI melanoma
# [3] = system: MOLT-4 leukemia
# [4] = system: NCI-H226 lung
# [5] = system: NCI-H460 lung
# [6] = system: NCI/ADR-RES ovarian
# [7] = system: OVCAR-5 ovarian
# [8] = system: SK-OV-3 ovarian
# [9] = system: T-47D breast
# [10] = system: UACC-257 melanoma
SMILES,TGI [1],TGI [2],TGI [3],TGI [4],TGI [5],TGI [6],TGI [7],TGI [8],TGI [9],TGI [10],GI50 [1],GI50 [2],GI50 [3],GI50 [4],GI50 [5],GI50 [6],GI50 [7],GI50 [8],GI50 [9],GI50 [10]
COc1cc2c(cc1OC)C(SC)C(=O)N(Cc1cccc(OC)c1OC)CC2 (stereo not given),> 90.8 µM,> 83.3 µM,45.5 µM,26.8 µM,28.8 µM,88.8 µM,98.3 µM,> 100 µM,21.2 µM,32.2 µM,–,–,–,–,–,–,–,–,–,–
Oc1c(I)cc(Cl)c2cccnc12,24.2 µM and 36.5 µM,39.4 µM and 24.2 µM,9.93 µM and 21.4 µM,20 µM and 8.8 µM,> 100 µM and 85.1 µM,36 µM and 45.7 µM,73.5 µM and 49.6 µM,22 µM and > 100 µM,28.7 µM and > 100 µM,83.5 µM and 71.5 µM,3.91 µM and 13 µM,2.66 µM and 4.03 µM,3.37 µM and 3.12 µM,3.02 µM and 2.66 µM,3 µM and 5.84 µM,3.21 µM and 4.12 µM,6.43 µM and 13.2 µM,6.24 µM and 9.06 µM,4.16 µM and 8.7 µM,3.61 µM and 24.5 µM
Oc1ccc(-c2[nH]c3ccccc3c2-c2nc3ccccc3o2)cc1,16.3 µM,5.72 µM,41.3 µM,15.3 µM,11.5 µM,9.04 µM,17.2 µM,17.3 µM,15.4 µM,18.3 µM,3.34 µM,1.9 µM,6.49 µM,3.14 µM,3.24 µM,2.63 µM,4.49 µM,5.03 µM,3.08 µM,4.59 µM
